These are literature values, as cited in US5180744A, “Aralkyl-N-terminal amino hydroxy” (G. D. Searle & Co., priority 1991, dated 1993).

Square brackets hold non-standard residues; d marks the D form. Peptide text beside a SMILES is read from it. * marks the point of attachment. Sta = CC(C)C[C@H](N)[C@@H](O)CC(=O)O; Isovaleryl = CC(C)CC(=O)*

The data set deals with hog renin. Conditions: after the injection of hog renin into nephrectomized rats.

On to `CC(C)CC(=O)N[C@H](C(=O)N[C@H](C(=O)N[C@@H](CC(C)C)[C@@H](O)CC(=O)N[C@@H](C)C(=O)N[C@@H](CC(C)C)[C@@H](O)CC(=O)O)C(C)C)C(C)C` [pepstatin] (Isovaleryl-VV[Sta]A[Sta]-OH), for which the “blood pressure in vivo” value is recorded as “reduce blood pressure in vivo”.
